Results taken from paper PMC9386018, “A lymphatic-absorbed multi-targeted kinase inhibitor for myelofibrosis therapy” (Nature Communications, 2022).
Several values for one entry are separate records, joined by “and”; a condition that tells them apart may be missing. Equal entries are not always repeated.

Assays:
[1] = test system: MPL^W515L mouse model of myelofibrosis; experiment: MPL^W515L MF mouse model: histology of spleen, liver and bone marrow; type: in vivo; conditions: MPL^W515L mice, oral 400 mg kg^−1 daily, 28 d
Protocol: Generation of the MPL^W515L mutant MF mouse model was similar to previously described methods. Briefly, female donor BALB/c mice were treated with 5-fluorouracil at 150 mg kg^−1 intraperitoneal for 5 d before harvesting bone marrow. Hematopoietic stem and progenitor cells were enriched with CD117 magnetic beads (Miltenyi Biotec), transduced with retrovirus containing MSCV-hMPL W515L-IRES-GFP, then 50,000 transduced HSPCs along with 300,000 total non-stem cells were injected intravenously into lethally irradiated female BALB/c recipients. Development of MF was evaluated by spleen volumes using MRI beginning ~14 d following bone marrow transplantation (BMT) as outlined below, continuing weekly until end of the study. Mice were separated into equal groups based on spleen size ~14–21 d post-BMT, then treated with vehicle (Maisine CC) or LP-182 at 400 mg kg^−1 daily by oral gavage for 14–28 d or until mice were euthanized using guidelines for end stage illness and humane endpoints. Untreated healthy control animals were used for experimental comparisons. […] Soluble protein extracts were isolated by centrifugation at 15,000 x g for 15 min at 4 °C, quantified using Micro BCA protein assay (Thermo Scientific), then mixed with reducing 6X SDS-PAGE loading dye, heated for 8 min at 95 °C, and stored at −20 °C until immuno-blot analysis. […]

[2] = target: Target kinase isoforms (PI3K, mTOR, RAF, MEK) (Homo sapiens, UniProt P15056); experiment: Target kinase isoforms 10-point IC50 determination (Supplementary Fig. 7); type: biochemical; conditions: BRAF
Procedure, shortened: (§1)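 Kinase activity across a 10-point dose series was corrected and normalized to vehicle-treated controls. IC50 values were derived by non-linear regression of percent activity. Kinome-wide percent inhibition was averaged over replicates.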

[3] = target: Target kinase isoforms (PI3K, mTOR, RAF, MEK) (Homo sapiens, UniProt P04049); experiment: as above; type: biochemical; conditions: CRAF
Procedure, shortened: as §1

[4] = target: Target kinase isoforms (PI3K, mTOR, RAF, MEK) (Homo sapiens, UniProt P36507); experiment: as above; type: biochemical; conditions: MEK2, replicates
Procedure, shortened: as §1

[5] = test system: MPL^W515L mouse model of myelofibrosis; experiment: MPL^W515L MF mouse model: spleen volume by MRI (Study 1); type: in vivo; conditions: MPL^W515L mice; for Spleen volume to body weight ratio (mm3/g): individual animals
Protocol: Generation of the MPL^W515L mutant MF mouse model was similar to previously described methods. Briefly, female donor BALB/c mice were treated with 5-fluorouracil at 150 mg kg^−1 intraperitoneal for 5 d before harvesting bone marrow. Hematopoietic stem and progenitor cells were enriched with CD117 magnetic beads (Miltenyi Biotec), transduced with retrovirus containing MSCV-hMPL W515L-IRES-GFP, then 50,000 transduced HSPCs along with 300,000 total non-stem cells were injected intravenously into lethally irradiated female BALB/c recipients. Development of MF was evaluated by spleen volumes using MRI beginning ~14 d following bone marrow transplantation (BMT) as outlined below, continuing weekly until end of the study. Mice were separated into equal groups based on spleen size ~14–21 d post-BMT, then treated with vehicle (Maisine CC) or LP-182 at 400 mg kg^−1 daily by oral gavage for 14–28 d or until mice were euthanized using guidelines for end stage illness and humane endpoints. Untreated healthy control animals were used for experimental comparisons. Tissues were harvested and processed for flow cytometry (as described above), LCMS/MS, immuno-blotting, and histological analysis (as described in Supplementary Methods) at the defined study endpoint(s), approximately 1–2 h post-treatment with vehicle or LP-182. Briefly, blood samples were collected, transferred into K2-EDTA tubes (BD Microtainer), inverted gently to mix, then centrifuged at 2000 x g for 15 min. […] Dissection and bone marrow isolation from mouse femur and tibia was performed similar to previously described methods. Briefly, the hind limbs from mice were dissected, muscle and connective tissue removed, and bones were frozen at −80 °C. Femur and tibia were thawed separately, placed knee-end down in 18 gauge needle-pierced 0.5 mL microcentrifuge tubes nested inside 1.5 or 2 mL microcentrifuge tubes containing 1.4 mm ceramic beads (Fisher Scientific), then bone marrow was isolated by centrifugation at 10,000 x g for 1 min and processed for analysis by LCMS/MS (above; femur) or immuno-blotting (tibia). […] Soluble protein extracts were isolated by centrifugation at 15,000 x g for 15 min at 4 °C, quantified using Micro BCA protein assay (Thermo Scientific), then mixed with reducing 6X SDS-PAGE loading dye, heated for 8 min at 95 °C, and stored at −20 °C until immuno-blot analysis. Whole cell lysates were resolved by 10% SDS-PAGE, transferred to PVDF (Immobilon-P; MilliporeSigma), then membranes were blocked with 5% BSA (Equitech-Bio) in TBS containing 0.1% Tween-20 (TBST) for 1 h at room temperature with gentle orbital shaking. Membranes were incubated with primary antibodies in 5% BSA/TBST overnight at 4 °C or 5% skim milk/TBST (Lab Scientific) for 1 h at room temperature, then washed with TBST, and incubated with HRP-conjugated secondary antibodies in 5% skim milk/TBST for 1.5 h at room temperature, all with gentle platform rocking. Membranes were washed with TBST, then visualized by chemiluminescence on a BioRad ChemiDoc MP Imaging System using SuperSignal West PicoPLUS or West Femto Chemiluminescent Substrate (Thermo Scientific). Membranes were stripped using Restore PLUS Western Blot Stripping Buffer (Thermo Scientific) as per manufacturer’s instructions and re-probed with additional primary antibodies as described above. […] All antibodies were used at dilutions recommended by their specified manufacturers or optimized empirically. Additional reagents were purchased from MilliporeSigma (St. Louis, MO) unless otherwise specified. Tissues for histology were formalin-fixed, paraffin-embedded, sectioned, and stained with Hematoxylin and Eosin (H&E) to assess cellularity and tissue morphology, with Reticulin Stain Kit (Connective Tissue Stain; Abcam) to assess fibrosis, or processed for immunohistochemistry staining with GFP to assess MPL^W515L-positive cellularity. […]

[6] = concentration 0.495 nM, 0.000495 µM
[7] = concentration 1.52 nM, 0.00152 µM
[8] = concentration 4.57 nM, 0.00457 µM
[9] = concentration 41.2 nM, 0.0412 µM

Sequence of Target kinase isoforms (PI3K, mTOR, RAF, MEK) (Homo sapiens, UniProt P15056) (P15056 whole entry, canonical isoform): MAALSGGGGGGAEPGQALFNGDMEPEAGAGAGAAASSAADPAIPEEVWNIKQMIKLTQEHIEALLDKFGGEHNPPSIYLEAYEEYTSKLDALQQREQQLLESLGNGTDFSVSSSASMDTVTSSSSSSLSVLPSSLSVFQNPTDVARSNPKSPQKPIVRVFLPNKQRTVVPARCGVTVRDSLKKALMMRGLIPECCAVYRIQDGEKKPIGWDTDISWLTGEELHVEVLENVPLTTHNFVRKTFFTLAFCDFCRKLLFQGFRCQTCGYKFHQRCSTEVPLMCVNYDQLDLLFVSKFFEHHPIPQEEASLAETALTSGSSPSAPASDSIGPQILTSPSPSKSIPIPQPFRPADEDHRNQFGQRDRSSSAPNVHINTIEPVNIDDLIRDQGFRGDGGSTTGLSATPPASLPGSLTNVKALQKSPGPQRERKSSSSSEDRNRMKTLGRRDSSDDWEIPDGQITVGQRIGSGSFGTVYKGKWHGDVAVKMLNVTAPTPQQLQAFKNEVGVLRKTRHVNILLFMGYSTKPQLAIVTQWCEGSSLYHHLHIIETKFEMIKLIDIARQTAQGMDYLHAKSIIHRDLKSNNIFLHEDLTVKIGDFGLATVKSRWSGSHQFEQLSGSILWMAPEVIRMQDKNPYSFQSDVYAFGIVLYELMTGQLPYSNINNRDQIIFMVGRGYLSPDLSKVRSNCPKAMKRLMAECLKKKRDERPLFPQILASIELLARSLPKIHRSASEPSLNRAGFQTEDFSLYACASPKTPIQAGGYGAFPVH
Sequence of Target kinase isoforms (PI3K, mTOR, RAF, MEK) (Homo sapiens, UniProt P36507) (P36507 whole entry, canonical isoform): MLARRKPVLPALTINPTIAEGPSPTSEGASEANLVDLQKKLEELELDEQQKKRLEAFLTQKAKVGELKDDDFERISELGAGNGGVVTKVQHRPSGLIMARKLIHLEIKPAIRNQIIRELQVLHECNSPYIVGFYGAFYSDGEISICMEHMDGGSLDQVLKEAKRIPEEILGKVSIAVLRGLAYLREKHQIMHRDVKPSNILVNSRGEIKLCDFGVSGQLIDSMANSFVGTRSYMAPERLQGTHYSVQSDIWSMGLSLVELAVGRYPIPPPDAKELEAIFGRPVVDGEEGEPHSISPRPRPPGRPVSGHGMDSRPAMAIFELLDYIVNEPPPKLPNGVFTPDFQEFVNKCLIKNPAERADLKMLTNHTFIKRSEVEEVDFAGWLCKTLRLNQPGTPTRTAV
Sequence of Target kinase isoforms (PI3K, mTOR, RAF, MEK) (Homo sapiens, UniProt P04049) (P04049 whole entry, canonical isoform): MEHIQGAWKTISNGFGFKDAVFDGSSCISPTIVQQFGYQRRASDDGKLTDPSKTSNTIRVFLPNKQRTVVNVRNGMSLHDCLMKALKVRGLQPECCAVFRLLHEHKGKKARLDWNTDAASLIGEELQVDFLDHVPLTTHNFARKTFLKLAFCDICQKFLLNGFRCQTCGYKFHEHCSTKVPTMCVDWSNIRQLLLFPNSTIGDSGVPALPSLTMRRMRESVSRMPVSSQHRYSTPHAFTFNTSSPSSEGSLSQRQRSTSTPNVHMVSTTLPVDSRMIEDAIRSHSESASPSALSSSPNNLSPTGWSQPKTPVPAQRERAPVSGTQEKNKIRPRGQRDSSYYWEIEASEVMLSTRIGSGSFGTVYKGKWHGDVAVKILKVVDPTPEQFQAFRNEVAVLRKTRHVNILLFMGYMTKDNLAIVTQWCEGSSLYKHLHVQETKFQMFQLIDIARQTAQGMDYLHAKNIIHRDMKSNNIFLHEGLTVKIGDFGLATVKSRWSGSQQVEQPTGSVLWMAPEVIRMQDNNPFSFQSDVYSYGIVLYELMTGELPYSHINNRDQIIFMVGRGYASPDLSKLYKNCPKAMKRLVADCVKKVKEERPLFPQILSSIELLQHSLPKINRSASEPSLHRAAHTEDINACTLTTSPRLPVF

For `O=C(NOCCOCCOCCOCCC(=O)N1CCN(c2cnc3ccc(-c4cnc(Cl)c(NS(=O)(=O)c5ccc(F)cc5)c4)cc3n2)CC1)c1ccc(F)c(F)c1Nc1ccc(I)cc1F` [LP-182, N-(2-(2-(2-(3-(4-(7-(6-chloro-5-((4-fluorophenyl)sulfonamido)pyridin-3-yl)quinoxalin-2-yl)piperazin-1-yl)-3-oxopropoxy)ethoxy)ethoxy)ethoxy)-3,4-difluoro-2-((2-fluoro-4-iodophenyl)amino)benzamide], the “extramedullary hematopoiesis, number of MKs and MPL^W515L-positive MKs” value [1] was “reduced”, the “reticulin fibrosis in bone marrow” value [1] was “diminution of reticulin fibrosis” and the activity at 0.000495 µM ([2]; concentration 0.495 nM) was 100%. For the same compound, the “Kinase Activity (%) BRAF” value [2, 6] was 102% and 96% and 94% and 93%, the activity at 0.00152 µM ([2]; concentration 1.52 nM) was 101% and the “Kinase Activity (%) BRAF” value [2, 7] was 98% and 95% and 94%. For the same compound, the activity at 0.00457 µM ([2]; concentration 4.57 nM) was 90%, the “Kinase Activity (%) BRAF” value [2, 8] was 94% and 95% and 98% and 89% and 93% and the “Kinase Activity (%) BRAF” value [2, 9] was 49% and 38% and 54% and 59% and 53%. For the same compound, the “Kinase Activity (%) BRAF” value ([2]; concentration 1110 nM, 1.11 µM) was -5% and -3% and 2% and 4% and 5%, the “Kinase Activity (%) BRAF” value ([2]; concentration 3330 nM, 3.33 µM) was -5% and 1% and 4% and the activity at 0.000495 µM ([3]; concentration 0.495 nM, replicates) was 97%. The “Kinase Activity (%)” value ([3]; concentration 0.495 nM, replicates, 0.000495 µM) was 102% and 93% and 92% and 98%, the activity at 0.00152 µM ([3]; concentration 1.52 nM, replicates) was 100% and the “Kinase Activity (%)” value ([3]; concentration 1.52 nM, replicates, 0.00152 µM) was 93% and 94%. The activity at 0.00457 µM ([3]; concentration 4.57 nM, replicates) was 96%, the “Kinase Activity (%)” value ([3]; concentration 4.57 nM, replicates, 0.00457 µM) was 94% (2×) and 89% and 91% and 93% and the “Kinase Activity (%)” value ([3]; concentration 41.2 nM, replicates, 0.0412 µM) was 56% and 79% and 66% and 72% and 70% and 71%. The activity at 0.123 µM ([3]; concentration 123 nM, replicates) was 31%, the “Kinase Activity (%)” value ([3]; concentration 123 nM, replicates, 0.123 µM) was 30% and 34% (3×) and 32% and the activity at […] ([3]; concentration 370 nM, replicates) was 7%. The “Kinase Activity (%)” value ([3]; concentration 1110 nM, replicates, 1.11 µM) was 1% (2×) and 3% and 0% and 2% (2×), the “Kinase Activity (%) CRAF” value ([3]; concentration 3330 nM, 3.33 µM) was 0% and -2% and -1% and the “Kinase Activity (%) CRAF” value ([3]; concentration 10000 nM, 10 µM) was 3% and 0% and 1% and -1%. For the same compound, the activity at 0.000495 µM ([4]; concentration 0.495 nM) was 90%, the “Kinase Activity (%)” value [4, 6] was 96% (2×) and 93% and 95% and the activity at 0.00152 µM ([4]; concentration 1.52 nM) was 89%. For the same compound, the “Kinase Activity (%)” value [4, 7] was 91% and 95% and 92% and 94%, the activity at 0.00457 µM ([4]; concentration 4.57 nM) was 87% and the “Kinase Activity (%)” value [4, 8] was 96% and 91% and 88%. The activity at 0.0412 µM ([4]; concentration 41.2 nM) was 68%, the “Kinase Activity (%)” value [4, 9] was 64% and 78% (2×) and 82% and 72% and the “Kinase Activity (%)” value ([4]; concentration 123 nM, 0.123 µM) was 45% and 36% and 54% and 60% and 51% and 56%. The activity at 1.11 µM ([4]; concentration 1110 nM) was 6%, the “Kinase Activity (%)” value ([4]; concentration 1110 nM, 1.11 µM) was 8% and 12% (2×) and 10% and the “Kinase Activity (%)” value ([4]; concentration 3330 nM, 3.33 µM) was 1% (3×) and 2% (2×) and 0%. The “Kinase Activity (%)” value ([4]; concentration 10000 nM, 10 µM) was 2% (2×) and 0% (2×) and -1% and 1%, the “Spleen volume to body weight ratio (mm3/g)” value ([5]; LP-182 group, treatment length 0 d (baseline)) was 31.0875 mm3/g and 17.4312 mm3/g and 19.0791 mm3/g and 34.919 mm3/g and 29.5281 mm3/g and the “Spleen volume to body weight ratio (mm3/g)” value ([5]; LP-182 group, treatment length -7 d (before treatment)) was 15.1103 mm3/g and 6.53 mm3/g and 9.708 mm3/g and 8.386 mm3/g and 11.4368 mm3/g. For the same compound, the “reduction of spleen volume compared to vehicle” value ([5]; oral 400 mg kg^−1 daily, after 14 d) was ~ 35%, the “Spleen volume to body weight ratio (mm3/g)” value ([5]; oral 400 mg kg^−1 daily, treatment length 7 d) was 26.2397 mm3/g and 11.9227 mm3/g and 23.2289 mm3/g and 24.8013 mm3/g and 24.121 mm3/g and the “Spleen volume to body weight ratio (mm3/g)” value ([5]; oral 400 mg kg^−1 daily, treatment length 14 d) was 25.0148 mm3/g and 4.765 mm3/g and 27.3514 mm3/g and 25.4021 mm3/g and 32.6974 mm3/g. For the same compound, the “Spleen volume to body weight ratio (mm3/g)” value ([5]; oral 400 mg kg^−1 daily, treatment length 21 d) was 28.0008 mm3/g and 4.203 mm3/g and 24.753 mm3/g and 31.0963 mm3/g and 27.5586 mm3/g.
